Data: paper PMC8493129, “Design and Synthesis of New Quinoxaline Derivatives as Potential Histone Deacetylase Inhibitors Targeting Hepatocellular Carcinoma: In Silico, In Vitro, and SAR Studies” (Frontiers in Chemistry, 2021)
Several values for one entry are separate records, joined by “and”; a condition that tells them apart may be missing. Equal values may be shown once.

What was measured:
[1] = tested on: Bax; assay: Apoptotic marker level (Bax) in HepG-2 cells; type: cell-based, human; conditions: control 24.37 pg/ml
Description: (§1) The method was performed in detail as previously explained ([Eliaa et al., 2020]).

[2] = tested on: Bcl-2; assay: Anti-apoptotic marker level (Bcl-2) in HepG-2 cells; type: cell-based, human; conditions: control 5.048 pg/ml
Description: as §1

[3] = tested on: HepG-2 cells; assay: Cell cycle analysis by flow cytometry; type: cell-based, human
Description: The most compound 6 c incorporating 4-Cl benzylidene side chain was further evaluated through cell cycle analysis in HepG-2 cell line. Such a test was carried out to detect the exact phase at which cell cycle arrest takes place.

[4] = tested on: HepG-2 liver cancer cell line; assay: Anti-proliferative activity (MTT / SRB assay), HepG-2; type: cell-based, human; conditions: HepG-2; for IC50: Homo sapiens, HepG2, mean of three separate experiments
Description: (§2) The new quinoxaline derivatives of the five series: 6, 7, 8, 9, and 10 were evaluated for their potential anti-proliferative activity against two liver cancer cell lines (HepG-2 and HuH-7) obtained from the American Type Culture Collection.

[5] = tested on: HuH-7 liver cancer cell line; assay: Anti-proliferative activity (MTT / SRB assay), HuH-7; type: cell-based, human; conditions: for IC50: Homo sapiens, mean of three separate experiments
Description: as §2

[6] = target: T1, HDAC6 (Homo sapiens, UniProt Q9UBN7); assay: Histone deacetylase inhibition, homogeneous fluorescence release assay
T1 sequence (Q9UBN7 1-1215): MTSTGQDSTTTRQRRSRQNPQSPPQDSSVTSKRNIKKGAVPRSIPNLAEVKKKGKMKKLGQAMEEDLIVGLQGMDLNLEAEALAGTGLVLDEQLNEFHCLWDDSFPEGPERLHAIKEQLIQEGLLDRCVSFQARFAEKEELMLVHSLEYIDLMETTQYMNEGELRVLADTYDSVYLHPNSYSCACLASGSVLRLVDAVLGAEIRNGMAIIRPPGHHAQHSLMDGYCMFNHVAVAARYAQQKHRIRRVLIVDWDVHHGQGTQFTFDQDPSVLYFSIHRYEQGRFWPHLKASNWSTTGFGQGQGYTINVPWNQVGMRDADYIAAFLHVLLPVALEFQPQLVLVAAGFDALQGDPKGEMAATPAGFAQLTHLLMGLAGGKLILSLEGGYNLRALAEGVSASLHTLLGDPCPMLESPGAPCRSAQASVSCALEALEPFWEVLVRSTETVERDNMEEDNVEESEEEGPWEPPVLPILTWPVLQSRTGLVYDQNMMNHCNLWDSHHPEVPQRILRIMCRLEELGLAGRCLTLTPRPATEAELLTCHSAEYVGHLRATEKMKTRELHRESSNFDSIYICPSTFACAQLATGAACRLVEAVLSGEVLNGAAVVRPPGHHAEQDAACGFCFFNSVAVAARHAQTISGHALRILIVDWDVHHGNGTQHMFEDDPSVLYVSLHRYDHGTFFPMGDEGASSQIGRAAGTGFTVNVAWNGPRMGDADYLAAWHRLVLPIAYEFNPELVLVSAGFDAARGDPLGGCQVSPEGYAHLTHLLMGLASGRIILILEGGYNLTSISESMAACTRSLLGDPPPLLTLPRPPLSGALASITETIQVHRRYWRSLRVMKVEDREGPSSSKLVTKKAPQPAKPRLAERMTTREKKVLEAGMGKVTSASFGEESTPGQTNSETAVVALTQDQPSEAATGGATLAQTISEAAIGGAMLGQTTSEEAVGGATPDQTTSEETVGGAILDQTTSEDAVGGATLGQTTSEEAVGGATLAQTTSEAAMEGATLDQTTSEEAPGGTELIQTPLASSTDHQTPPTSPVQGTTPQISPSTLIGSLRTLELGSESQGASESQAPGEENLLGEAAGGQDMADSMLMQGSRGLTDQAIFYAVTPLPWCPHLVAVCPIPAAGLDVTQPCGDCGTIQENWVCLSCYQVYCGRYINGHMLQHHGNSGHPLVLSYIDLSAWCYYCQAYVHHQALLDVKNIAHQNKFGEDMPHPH

[7] = tested on: HepG-2 cells; assay: Annexin V-FITC apoptosis assay; type: cell-based, human; conditions: HepG-2, 1.53 µM
Description: It is well-known that cell death may be due to programmed apoptosis or uncontrolled necrosis. Annexin V-based flow cytometry assay as a helpful strategy to determine the exact cause of death was carried out. […] This confirms that the cytotoxic activity of compound 6 c is due to programmed apoptosis, and not to nonspecific necrosis.
The previous compound was analyzed by FACS as we previously described ([Al-Rashood et al., 2020]; [Eliaa et al., 2020]; [Eldehna et al., 2021]).

[8] = target: HDAC1 (Homo sapiens, UniProt Q13547); assay: Histone deacetylase inhibition, homogeneous fluorescence release assay
Sequence of HDAC1 (Q13547 whole entry): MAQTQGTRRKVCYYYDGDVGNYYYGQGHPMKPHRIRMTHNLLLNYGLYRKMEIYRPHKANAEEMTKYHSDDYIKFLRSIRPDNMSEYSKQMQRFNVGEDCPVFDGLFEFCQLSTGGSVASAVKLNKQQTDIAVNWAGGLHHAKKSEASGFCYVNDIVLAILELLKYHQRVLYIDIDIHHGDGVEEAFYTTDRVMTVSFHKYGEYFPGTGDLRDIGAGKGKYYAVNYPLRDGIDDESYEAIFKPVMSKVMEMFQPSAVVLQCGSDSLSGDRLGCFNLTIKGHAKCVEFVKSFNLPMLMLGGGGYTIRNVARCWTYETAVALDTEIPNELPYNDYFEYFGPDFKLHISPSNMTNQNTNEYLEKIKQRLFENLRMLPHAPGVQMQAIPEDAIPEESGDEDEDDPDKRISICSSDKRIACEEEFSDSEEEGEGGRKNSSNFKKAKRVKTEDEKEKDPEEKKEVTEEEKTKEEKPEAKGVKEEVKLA

[9] = target: HDAC4 (Homo sapiens, UniProt P56524); assay: as above
Sequence of HDAC4 (P56524 whole entry): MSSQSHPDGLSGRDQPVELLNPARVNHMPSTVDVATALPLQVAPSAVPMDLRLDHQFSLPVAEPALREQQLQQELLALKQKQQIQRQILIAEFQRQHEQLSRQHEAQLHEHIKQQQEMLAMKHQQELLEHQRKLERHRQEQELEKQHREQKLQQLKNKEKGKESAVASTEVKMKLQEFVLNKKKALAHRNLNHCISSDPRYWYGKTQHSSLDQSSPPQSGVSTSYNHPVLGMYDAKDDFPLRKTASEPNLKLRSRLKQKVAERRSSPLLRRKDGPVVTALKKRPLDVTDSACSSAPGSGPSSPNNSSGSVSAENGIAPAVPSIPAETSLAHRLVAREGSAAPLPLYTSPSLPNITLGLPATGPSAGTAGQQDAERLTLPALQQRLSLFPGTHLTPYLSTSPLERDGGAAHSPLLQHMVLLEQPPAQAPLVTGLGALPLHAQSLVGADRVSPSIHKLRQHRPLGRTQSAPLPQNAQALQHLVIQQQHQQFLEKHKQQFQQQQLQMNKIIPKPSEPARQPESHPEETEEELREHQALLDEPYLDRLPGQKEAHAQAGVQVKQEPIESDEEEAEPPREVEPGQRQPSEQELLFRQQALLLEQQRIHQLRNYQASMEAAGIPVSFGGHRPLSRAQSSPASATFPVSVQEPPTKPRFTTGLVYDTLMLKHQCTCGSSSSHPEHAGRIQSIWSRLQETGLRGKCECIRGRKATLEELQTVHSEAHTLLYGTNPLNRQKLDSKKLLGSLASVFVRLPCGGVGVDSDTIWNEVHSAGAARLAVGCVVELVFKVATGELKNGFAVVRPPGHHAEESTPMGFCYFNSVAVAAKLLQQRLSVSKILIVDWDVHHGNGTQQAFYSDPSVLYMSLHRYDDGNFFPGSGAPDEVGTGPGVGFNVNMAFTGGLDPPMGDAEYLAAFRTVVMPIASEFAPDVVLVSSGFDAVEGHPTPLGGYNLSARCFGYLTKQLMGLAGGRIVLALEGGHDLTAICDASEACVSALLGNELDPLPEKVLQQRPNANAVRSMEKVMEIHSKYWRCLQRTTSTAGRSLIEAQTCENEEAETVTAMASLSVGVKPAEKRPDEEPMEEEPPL

[10] = tested on: HepG-2 and HuH-7 liver cancer cell lines; assay: Anti-proliferative activity, statements covering both cell lines; type: cell-based, human; conditions: class by IC50 on HepG-2 and HuH-7
Description: as §2

SMILES | Bax [1] | Bcl-2 [2] | decline in the cell population at G0/G1 phase compared to control ([3]; HepG-2, 1.53 µM) | decline in the cell population at S phase compared to control ([3]; HepG-2, 1.53 µM) | increase in the population of cells at the G2/M phase compared to control ([3]; HepG-2, 1.53 µM) | %G2/M ([3]; HepG-2 cells treated at 1.53 µM, control 18.67%) | %S ([3]; HepG-2 cells treated at 1.53 µM, control 35.93%) | %G0-G1 ([3]; HepG-2 cells treated at 1.53 µM, control 45.40%) | IC50 [4] | IC50 [5] | IC50 [6] | increase in apoptosis percentage compared to the control, early phase [7] | increase in apoptosis percentage compared to the control, late phase [7] | AnxV-FITC apoptotic cells percentage, late apoptosis ([7]; control 0.53%) | AnxV-FITC apoptotic cells percentage, early apoptosis ([7]; control 0.62%) | IC50 [8] | IC50 [9] | fold increase in activity versus corresponding member 9, HepG-2 ([4]; ratio of IC50 values) | fold increase in activity versus corresponding member 9, HuH-7 ([5]; ratio of IC50 values) | cytotoxic (anti-proliferative) activity class [10]
Clc1ccc(C=NNc2nc3ccccc3nc2Cl)cc1 [Compound 6 c, 2-Chloro-3-(2-(4-chlorobenzylidene)hydrazinyl)quinoxaline] | 274.3 pg/mL | 1.27 pg/mL and 1.278 pg/mL | 1.23 fold | 1.18 fold | 1.76 fold | 32.93% | 30.32% | 36.75% | 1.53 µM | 3.06 µM | 3460 nM | 9.98 fold | 10.81 fold | 5.73% | 6.19% | 1760 nM | 1390 nM | – | – | –
COc1nc2ccccc2nc1N/N=C1/C(=O)Nc2ccccc21 [Compound 12] | 257.9 pg/mL | 1.571 pg/mL | – | – | – | – | – | – | 1.99 µM | 3.08 µM | 3620 nM | – | – | – | – | 2010 nM | 1720 nM | 5.81 fold | 5.33 fold | very strong (1–10 (very strong))
